Test results from PubChem BioAssay AID206 (DTP/NCI, 2004).
Where “and” joins values, the source holds several entries; their conditions need not be identical. Identical values can stand only once. Inconclusive results are not listed.

Tested on: nude mice, HT29 intrarenal xenograft, tumor weight T/C
Experiment: NCI In Vivo Anticancer Drug Screen. Data for tumor model HT29;CX-1 Human Adenocarcinoma (MER+) (intrarenal inoculation) in NU/NU Swiss (nude) mice
Conditions: endpoint: mean tumor weight change, higher = larger tumour
Outline: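 Tumor-bearing mice received test compound or vehicle, and tumor size or survival was recorded. Values are the treated-group measurement divided by the vehicle-treated control measurement.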

Structure (SMILES): CCOC(=O)C(CC(C)C)NC(=O)C(N)Cc1ccc(N(CCCl)CCCl)cc1 (configuration not stated)
- T/C (dose: 7.5 mg/kg/injection, schedule: Q04DX004 (sc), vehicle: water): 81 % of control
- T/C (dose: 15.0 mg/kg/injection, schedule: Q04DX004 (sc), vehicle: water): 105 % of control and 118 % of control
- T/C (dose: 30.0 mg/kg/injection, schedule: Q04DX004 (sc), vehicle: water): 82 % of control and 86 % of control
- T/C (dose: 60.0 mg/kg/injection, schedule: Q04DX004 (sc), vehicle: water): 7 % of control

Structure (SMILES): C=CS(C=C)=NS(=O)(=O)c1ccc(C)cc1
- T/C (dose: 18.75 mg/kg/injection, schedule: Q04DX004 (sc), vehicle: Klucel (hydroxypropylcellulose) (HPC)): 91 % of control
- T/C (dose: 37.5 mg/kg/injection, schedule: Q04DX004 (sc), vehicle: Klucel (hydroxypropylcellulose) (HPC)): 60 % of control

Structure (SMILES): NS(=O)(=O)OCCCCCCCOS(N)(=O)=O
- T/C (dose: 37.5 mg/kg/injection, schedule: Q04DX004 (ip), vehicle: saline with Tween-80): 74 % of control
- T/C (dose: 75.0 mg/kg/injection, schedule: Q04DX004 (ip), vehicle: saline with Tween-80): 102 % of control
- T/C (dose: 150.0 mg/kg/injection, schedule: Q04DX004 (ip), vehicle: saline with Tween-80): 35 % of control

Structure (SMILES): CS(C)=O
- T/C (dose: 750.0 mg/kg/injection, schedule: Q01DX010 (sc), vehicle: saline): 36 % of control
- T/C (dose: 1500.0 mg/kg/injection, schedule: Q01DX010 (sc), vehicle: saline): 31 % of control
- T/C (dose: 3000.0 mg/kg/injection, schedule: Q01DX010 (sc), vehicle: saline): 89 % of control
- T/C (dose: 6000.0 mg/kg/injection, schedule: Q01DX010 (sc), vehicle: saline): 75 % of control

Structure (SMILES): CC[C@H]1CN2CCc3cc(OC)c(OC)cc3[C@@H]2C[C@@H]1C[C@H]1NCCc2cc(OC)c(OC)cc21
- T/C (dose: 1.0 mg/kg/injection, schedule: Q01DX010 (sc), vehicle: saline): 92 % of control
- T/C (dose: 2.0 mg/kg/injection, schedule: Q01DX010 (sc), vehicle: saline): 166 % of control
- T/C (dose: 4.0 mg/kg/injection, schedule: Q01DX010 (sc), vehicle: saline): 90 % of control

Structure (SMILES): CCCCCCCCCCCCCCC/C([O-])=N/[N+](C)(C)CC(C)O (configuration not stated)
- T/C (dose: 50.0 mg/kg/injection, schedule: Q04DX004 (sc), vehicle: Klucel (hydroxypropylcellulose) (HPC)): 106 % of control
- T/C (dose: 100.0 mg/kg/injection, schedule: Q04DX004 (sc), vehicle: Klucel (hydroxypropylcellulose) (HPC)): 103 % of control
- T/C (dose: 200.0 mg/kg/injection, schedule: Q04DX004 (sc), vehicle: Klucel (hydroxypropylcellulose) (HPC)): 86 % of control
- T/C (dose: 400.0 mg/kg/injection, schedule: Q04DX004 (sc), vehicle: Klucel (hydroxypropylcellulose) (HPC)): 110 % of control

Structure (SMILES): CCCCNC(C)C1(O)Cc2c(O)c3c(c(O)c2C(OC2CC(N)C(O)C(C)O2)C1)C(=O)c1c(OC)cccc1C3=O (configuration not stated)
- T/C (dose: 100.0 mg/kg/injection, schedule: Q01DX010 (sc), vehicle: water): 44 % of control

Structure (SMILES): OCCN1CCN(CCCN2c3ccccc3Sc3ccc(C(F)(F)F)cc32)CC1
- T/C (dose: 1.25 mg/kg/injection, schedule: Q01DX010 (sc), vehicle: saline): 121 % of control
- T/C (dose: 2.5 mg/kg/injection, schedule: Q01DX010 (sc), vehicle: saline): 58 % of control
- T/C (dose: 5.0 mg/kg/injection, schedule: Q01DX010 (sc), vehicle: saline): 118 % of control
- T/C (dose: 10.0 mg/kg/injection, schedule: Q01DX010 (sc), vehicle: saline): 92 % of control

Structure (SMILES): CCC1=C[C@H]2CN(CCc3c([nH]c4ccccc34)[C@@](C(=O)OC)(c3cc4c(cc3OC)N(C)[C@H]3[C@@](O)(C(=O)NC)[C@H](OC(C)=O)[C@]5(CC)C=CCN6CC[C@]43[C@@H]65)C2)C1
- T/C (dose: 1.0 mg/kg/injection, schedule: Q04DX004 (sc), vehicle: water): 106 % of control
- T/C (dose: 2.0 mg/kg/injection, schedule: Q04DX004 (sc), vehicle: water): 28 % of control
- T/C (dose: 4.0 mg/kg/injection, schedule: Q04DX004 (sc), vehicle: water): -20 % of control

Structure (SMILES): NC1(C(=O)O)CCCC1
- T/C (dose: 12.5 mg/kg/injection, schedule: Q01DX010 (sc), vehicle: saline): 49 % of control
- T/C (dose: 200.0 mg/kg/injection, schedule: Q01DX010 (sc), vehicle: saline): -20 % of control

Structure (SMILES): BrC[P+](CBr)(CBr)CBr
- T/C (dose: 50.0 mg/kg/injection, schedule: Q04DX004 (sc), vehicle: saline with Tween-80): 86 % of control
- T/C (dose: 100.0 mg/kg/injection, schedule: Q04DX004 (sc), vehicle: saline with Tween-80): 57 % of control
- T/C (dose: 200.0 mg/kg/injection, schedule: Q04DX004 (sc), vehicle: saline with Tween-80): 82 % of control
- T/C (dose: 400.0 mg/kg/injection, schedule: Q04DX004 (sc), vehicle: saline with Tween-80): 103 % of control

Structure (SMILES): COc1cc(NCCCCCCCNC(C)C)c2nccc(C)c2c1
- T/C (dose: 18.7 mg/kg/injection, schedule: Q04DX004 (sc), vehicle: saline): 56 % of control
- T/C (dose: 37.5 mg/kg/injection, schedule: Q04DX004 (sc), vehicle: saline): 85 % of control
- T/C (dose: 75.0 mg/kg/injection, schedule: Q04DX004 (sc), vehicle: saline): 71 % of control
